# Results: PubChem BioAssay (NCI)
#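 Where inhibition never reached the appropriate level, the endpoint shown equals the highest concentration tested. Otherwise, values were interpolated linearly from a five-concentration, 48-hour dose response in 96-well plates. TGI: concentration producing complete growth inhibition.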
# How the values were obtained:
# Assay in all cases: NCI-60 cell line screen, 48 h
# [1] = system: SR leukemia
# [2] = system: IGROV1 ovarian
# [3] = system: CCRF-CEM leukemia
# [4] = system: HT29 colon
# [5] = system: MOLT-4 leukemia
# [6] = system: UACC-257 melanoma
# [7] = system: BT-549 breast
# [8] = system: OVCAR-3 ovarian
# [9] = system: HOP-62 NSCLC
# [10] = system: OVCAR-4 ovarian
# [11] = system: SK-MEL-2 melanoma
# [12] = system: SF-268 CNS
# [13] = system: HCT-116 colon
# [14] = system: EKVX NSCLC
# [15] = system: NCI-H522 lung
# [16] = system: MDA-MB-435
# [17] = system: A498 renal
# [18] = system: HCT-15 colon
# [19] = system: NCI/ADR-RES ovarian
# [20] = system: ACHN renal
# [21] = system: UO-31 renal
# [22] = system: M14 melanoma
# [23] = system: TK-10 renal
# [24] = system: SK-MEL-28 melanoma
# [25] = system: SK-MEL-5 melanoma
# [26] = system: CAKI-1 renal
# [27] = system: SNB-19 CNS
# [28] = system: MDA-MB-231 breast
# [29] = system: NCI-H460 lung
# [30] = system: COLO 205 colon
# [31] = system: KM12 colon
# [32] = system: SW-620 colon
# [33] = system: UACC-62 melanoma
# [34] = system: T-47D breast
# [35] = system: MALME-3M melanoma
# [36] = system: SF-539 CNS
# [37] = system: RPMI-8226 leukemia
# [38] = system: SK-OV-3 ovarian
# [39] = system: LOX IMVI melanoma
# [40] = system: NCI-H226 lung
# [41] = system: MCF7 breast
# [42] = system: HCC-2998 colon
# [43] = system: OVCAR-8 ovarian
# [44] = system: SN12C renal
# [45] = system: SF-295 CNS
# [46] = system: PC-3 prostate
# [47] = system: 786-0 renal
# [48] = system: NCI-H23 lung
# [49] = system: SNB-75 CNS
# [50] = system: A549 NSCLC
# [51] = system: OVCAR-5 ovarian
# [52] = system: DU-145 prostate
# [53] = system: U251 CNS
# [54] = system: RXF 393 renal
# [55] = system: MDA-N
# [56] = system: K-562 leukemia
# [57] = system: HOP-92 NSCLC
compound,measurement,setting,value
N#CC1C(=O)Nc2sc(C(=O)c3ccc(Br)cc3)c(N)c2C12CCCCC2 (stereo not given),TGI,[1],> 100 µM
same,TGI,[2],> 100 µM
same,TGI,[3],80.3 µM
same,TGI,[4],> 100 µM
same,TGI,[5],> 100 µM
same,TGI,[6],> 100 µM
same,TGI,[7],> 100 µM
same,TGI,[8],52.7 µM
same,TGI,[9],> 100 µM
same,TGI,[10],> 100 µM
same,TGI,[11],37.7 µM
same,TGI,[12],> 100 µM
same,TGI,[13],> 100 µM
same,TGI,[14],> 100 µM
same,TGI,[15],78.8 µM
same,TGI,[16],58.9 µM
same,TGI,[17],63.6 µM
same,TGI,[18],> 100 µM
same,TGI,[19],> 100 µM
same,TGI,[20],> 100 µM
same,TGI,[21],> 100 µM
same,TGI,[22],39 µM
same,TGI,[23],> 100 µM
same,TGI,[24],47.7 µM
same,TGI,[25],32.5 µM
same,TGI,[26],> 100 µM
same,TGI,[27],> 100 µM
same,TGI,[28],67.7 µM
same,TGI,[29],> 100 µM
same,TGI,[30],40.1 µM
same,TGI,[31],44.1 µM
same,TGI,[32],69.4 µM
same,TGI,[33],54.1 µM
same,TGI,[34],> 100 µM
same,TGI,[35],84.2 µM
same,TGI,[36],42.6 µM
same,TGI,[37],> 100 µM
same,TGI,[38],> 100 µM
same,TGI,[39],> 100 µM
same,TGI,[40],80.8 µM
same,TGI,[41],> 100 µM
same,TGI,[42],57.7 µM
same,TGI,[43],> 100 µM
same,TGI,[44],> 100 µM
same,TGI,[45],> 100 µM
same,TGI,[46],57.1 µM
same,TGI,[47],> 100 µM
same,TGI,[48],> 100 µM
same,TGI,[49],> 100 µM
same,TGI,[50],> 100 µM
same,TGI,[51],> 100 µM
same,TGI,[52],> 100 µM
same,TGI,[53],> 100 µM
same,TGI,[54],31.8 µM
same,TGI,[55],55.4 µM
same,TGI,[56],> 100 µM
Cn1c(C(C#N)c2cc(Cl)ncn2)nc2ccccc21 (stereo not given),TGI,[2],> 100 µM
same,TGI,[4],> 100 µM
same,TGI,[5],> 100 µM
same,TGI,[6],> 100 µM
same,TGI,[7],> 100 µM
same,TGI,[8],> 100 µM
same,TGI,[9],> 100 µM
same,TGI,[10],> 100 µM
same,TGI,[12],> 100 µM
same,TGI,[13],> 100 µM
same,TGI,[14],> 100 µM
same,TGI,[15],> 100 µM
same,TGI,[16],> 100 µM
same,TGI,[17],> 100 µM
same,TGI,[18],> 100 µM
same,TGI,[19],> 100 µM
same,TGI,[20],> 100 µM
same,TGI,[21],> 100 µM
same,TGI,[22],> 100 µM
same,TGI,[23],> 100 µM
same,TGI,[24],> 100 µM
same,TGI,[25],> 100 µM
same,TGI,[26],> 100 µM
same,TGI,[27],> 100 µM
same,TGI,[28],> 100 µM
same,TGI,[29],> 100 µM
same,TGI,[30],> 100 µM
same,TGI,[31],> 100 µM
same,TGI,[32],> 100 µM
same,TGI,[34],> 100 µM
same,TGI,[35],> 100 µM
same,TGI,[36],> 100 µM
same,TGI,[37],> 100 µM
same,TGI,[38],> 100 µM
same,TGI,[39],> 100 µM
same,TGI,[40],> 100 µM
same,TGI,[43],> 100 µM
same,TGI,[44],> 100 µM
same,TGI,[45],> 100 µM
same,TGI,[47],> 100 µM
same,TGI,[48],> 100 µM
same,TGI,[49],> 100 µM
same,TGI,[50],> 100 µM
same,TGI,[51],> 100 µM
same,TGI,[52],> 100 µM
same,TGI,[53],> 100 µM
same,TGI,[54],> 100 µM
same,TGI,[57],> 100 µM
same,TGI,[55],> 100 µM
